Laboratory results reported in ChEMBL document CHEMBL4033619, “Autophagy antagonizes apoptosis induced by flavan enantiomers from Daphne giraldii in hepatic carcinoma cells in vitro” (Eur J Med Chem, 2017).
Calls of active or inactive are those of the source. The calls are words filed in the database; no cut-off is given here.

Columns and labels:
Hep 3B2 [1] = assay: Cytotoxicity against human Hep3B cells by MTT assay; format: functional, cell-based
[2] = target: T1, AMP-activated protein kinase, AMPK (Homo sapiens) (UniProt P54646+O43741+P54619+Q9UGJ0+Q9Y478+Q13131+Q9UGI9); assay: Increase in AMPK phosphorylation at Thr172 in human Hep3B cells at 15 to 60 uM by Western blot analysis; format: cell-based
[3] = target: T1, AMP-activated protein kinase, AMPK (Homo sapiens); assay: Increase in AMPK phosphorylation at Thr172 in human Hep3B cells at 30 uM in presence of autophagy inhibitor bafilomycin A1 by Western blot analysis; format: cell-based
MCF7 [4] = assay: Growth inhibition of human MCF7 cells after 48 hrs by MTT assay; format: functional, cell-based
Hep 3B2 [5] = assay: Induction of apoptosis in human Hep3B cells assessed as chromatin condensation at 30 uM in presence of autophagy inhibitor bafilomycin A1 by Hoechst 33258 staining-based fluorescence microscopy; format: functional, cell-based
Hep 3B2 [6] = assay: Induction of apoptosis in human Hep3B cells assessed as increase in Bax level at 30 uM in presence of autophagy inhibitor bafilomycin A1 by Western blot analysis; format: functional, cell-based
Hep 3B2 [7] = assay: Effect on AMPK expression in human Hep3B cells at 15 to 60 uM by Western blot analysis; format: functional, cell-based
A549 [8] = assay: Growth inhibition of human A549 cells after 48 hrs by MTT assay; format: functional, cell-based
Hep 3B2 [9] = assay: Induction of apoptosis in human Hep3B cells assessed as nuclear fragmentaion at 30 uM after 48 hrs by Hoechst 33258 staining-based fluorescence microscopy; format: functional, cell-based
Hep 3B2 [10] = assay: Induction of apoptosis in human Hep3B cells assessed as decrease in PARP level at 15 to 60 uM by Western blot analysis; format: functional, cell-based
Hep 3B2 [11] = assay: Induction of apoptosis in human Hep3B cells assessed as cell shrinkage at 30 uM after 48 hrs by phase contrast microscopic analysis; format: functional, cell-based
Hep 3B2 [12] = assay: Growth inhibition of human Hep3B cells after 48 hrs by MTT assay; format: functional, cell-based
Hep 3B2 [13] = assay: Induction of apoptosis in human Hep3B cells assessed as membrane blebbing at 30 uM after 48 hrs by phase contrast microscopic analysis; format: functional, cell-based
Hep 3B2 [14] = assay: Induction of apoptosis in human Hep3B cells assessed as increase in caspase 8 level by Western blot analysis; format: functional, cell-based
Hep 3B2 [15] = assay: Induction of apoptosis in human Hep3B cells assessed as chromatin condensation at 30 uM after 48 hrs by Hoechst 33258 staining-based fluorescence microscopy; format: functional, cell-based
Hep 3B2 [16] = assay: Induction of apoptosis in human Hep3B cells assessed as decrease in PARP level at 30 uM in presence of autophagy inhibitor bafilomycin A1 by Western blot analysis; format: functional, cell-based
Hep 3B2 [17] = assay: Induction of apoptosis in human Hep3B cells assessed as increase in Bax level by Western blot analysis; format: functional, cell-based
Hep 3B2 [18] = assay: Down regulation of AMPK expression in human Hep3B cells at 30 uM in presence of autophagy inhibitor bafilomycin A1 by Western blot analysis; format: functional, cell-based
Hep 3B2 [19] = assay: Induction of apoptosis in human Hep3B cells assessed as increase in cleaved PARP level at 30 uM in presence of autophagy inhibitor bafilomycin A1 by Western blot analysis; format: functional, cell-based
Hep 3B2 [20] = assay: Induction of apoptosis in human Hep3B cells assessed as increase in caspase 9 level at 30 uM in presence of autophagy inhibitor bafilomycin A1 by Western blot analysis; format: functional, cell-based
Hep 3B2 [21] = assay: Induction of autophagy in human Hep3B cells assessed as decrease in p62 level at 15 to 60 uM by Western blot analysis; format: functional, cell-based
Hep 3B2 [22] = assay: Induction of apoptosis in human Hep3B cells assessed as nuclear fragmentation at 30 uM in presence of autophagy inhibitor bafilomycin A1 by Hoechst 33258 staining-based fluorescence microscopy; format: functional, cell-based
Hep 3B2 [23] = assay: Induction of apoptosis in human Hep3B cells assessed as increase in caspase 9 level by Western blot analysis; format: functional, cell-based
Hep 3B2 [24] = assay: Induction of autophagy in human Hep3B cells at 30 uM after 48 hrs by MDC staining-based fluorescence microscopic method; format: functional, cell-based
Hep 3B2 [25] = assay: Induction of autophagy in human Hep3B cells assessed as increase in conversion of LC3-1 to LC3-2 at 10 to 60 uM by Western blot analysis; format: functional, cell-based
Hep 3B2 [26] = assay: Induction of apoptosis in human Hep3B cells assessed as increase in caspase 7 level by Western blot analysis; format: functional, cell-based
A549 [27] = assay: Cytotoxicity against human A549 cells by MTT assay; format: functional, cell-based
Hep 3B2 [28] = assay: Induction of apoptosis in human Hep3B cells assessed as increase in FADD level at 30 uM in presence of autophagy inhibitor bafilomycin A1 by Western blot analysis; format: functional, cell-based
Hep 3B2 [29] = assay: Induction of apoptosis in human Hep3B cells assessed as increase in caspase 8 level at 30 uM in presence of autophagy inhibitor bafilomycin A1 by Western blot analysis; format: functional, cell-based
Hep 3B2 [30] = assay: Cytotoxicity against human Hep3B cells assessed as reduction in cell growth at 30 uM in presence of autophagy inhibitor bafilomycin A1 by MTT assay; format: functional, cell-based
Hep 3B2 [31] = assay: Induction of apoptosis in human Hep3B cells assessed as increase in FADD level by Western blot analysis; format: functional, cell-based
Hep 3B2 [32] = assay: Induction of apoptosis in human Hep3B cells assessed as effect on cleaved PARP level at 15 to 60 uM by Western blot analysis; format: functional, cell-based
MCF7 [33] = assay: Cytotoxicity against human MCF7 cells by MTT assay; format: functional, cell-based
Hep 3B2 [34] = assay: Induction of apoptosis in human Hep3B cells assessed as increase in caspase 7 level at 30 uM in presence of autophagy inhibitor bafilomycin A1 by Western blot analysis; format: functional, cell-based
HepG2 [35] = assay: Growth inhibition of human HepG2 cells after 48 hrs by MTT assay; format: functional, cell-based
HepG2 [36] = assay: Cytotoxicity against human HepG2 cells by MTT assay; format: functional, cell-based

With `CC(C)=CCc1c([C@H]2CCc3ccc(O)cc3O2)cc2c(c1O)OC(C)(C)C=C2` the IC50 (Hep 3B2 [1]) was 30.3 µM, the Activity [2] was “Active” and the Activity [3] was “Active”. The “growth inhibition (GI)” value (MCF7 [4]) was “Dose-dependent effect”, the Activity (Hep 3B2 [5]) was “Active” and the Activity (Hep 3B2 [6]) was “Active”. For the same compound, the Activity (Hep 3B2 [7]) was “inactive”, the “growth inhibition (GI)” value (A549 [8]) was “Dose-dependent effect” and the Activity (Hep 3B2 [9]) was “Active”. For the same compound, the Activity (Hep 3B2 [10]) was “Active”, the Activity (Hep 3B2 [11]) was “Active” and the “growth inhibition (GI)” value (Hep 3B2 [12]) was “Dose-dependent effect”. For the same compound, the Activity (Hep 3B2 [13]) was “Active”, the Activity (Hep 3B2 [14]) was “Dose-dependent effect” and the Activity (Hep 3B2 [15]) was “Active”. For the same compound, the Activity (Hep 3B2 [16]) was “Active”, the Activity (Hep 3B2 [17]) was “Dose-dependent effect” and the Activity (Hep 3B2 [18]) was “Active”. The Activity (Hep 3B2 [19]) was “Active”, the Activity (Hep 3B2 [20]) was “Active” and the Activity (Hep 3B2 [21]) was “Active”. The Activity (Hep 3B2 [22]) was “Active”, the Activity (Hep 3B2 [23]) was “Dose-dependent effect” and the Activity (Hep 3B2 [24]) was “Active”. For the same compound, the Activity (Hep 3B2 [25]) was “Active”, the Activity (Hep 3B2 [26]) was “Dose-dependent effect” and the IC50 (A549 [27]) was over 100 µM. The Activity (Hep 3B2 [28]) was “Active”, the Activity (Hep 3B2 [29]) was “Active” and the Activity (Hep 3B2 [30]) was “Active”. The Activity (Hep 3B2 [31]) was “Dose-dependent effect”, the Activity (Hep 3B2 [32]) was “Active” and the IC50 (MCF7 [33]) was over 100 µM. For the same compound, the Activity (Hep 3B2 [34]) was “Active”, the “growth inhibition (GI)” value (HepG2 [35]) was “Dose-dependent effect” and the IC50 (HepG2 [36]) was 64.2 µM.

With `CC1(C)C=Cc2c(C3CCc4ccc(O)cc4O3)ccc(O)c2O1` (racemic) the IC50 (Hep 3B2 [1]) was 57.4 µM, the “growth inhibition (GI)” value (MCF7 [4]) was “Dose-dependent effect” and the “growth inhibition (GI)” value (A549 [8]) was “Dose-dependent effect”. The “growth inhibition (GI)” value (Hep 3B2 [12]) was “Dose-dependent effect”, the IC50 (A549 [27]) was over 100 µM and the IC50 (MCF7 [33]) was over 100 µM. For the same compound, the “growth inhibition (GI)” value (HepG2 [35]) was “Dose-dependent effect” and the IC50 (HepG2 [36]) was 92.8 µM.

In the case of `CC(C)=CCc1c([C@@H]2CCc3ccc(O)cc3O2)ccc(O)c1O`, the IC50 (Hep 3B2 [1]) is reported as 62.2 µM, the “growth inhibition (GI)” value (MCF7 [4]) is reported as “Dose-dependent effect” and the “growth inhibition (GI)” value (A549 [8]) is reported as “Dose-dependent effect”. For the same compound, the “growth inhibition (GI)” value (Hep 3B2 [12]) was “Dose-dependent effect”, the IC50 (A549 [27]) was over 100 µM and the IC50 (MCF7 [33]) was over 100 µM. The “growth inhibition (GI)” value (HepG2 [35]) was “Dose-dependent effect” and the IC50 (HepG2 [36]) was over 100 µM.

`CC(C)=CCc1c([C@H]2CCc3ccc(O)cc3O2)ccc(O)c1O` [KAZINOL U] was tested, and the IC50 (Hep 3B2 [1]) was 51.1 µM, the “growth inhibition (GI)” value (MCF7 [4]) was “Dose-dependent effect” and the “growth inhibition (GI)” value (A549 [8]) was “Dose-dependent effect”. For the same compound, the “growth inhibition (GI)” value (Hep 3B2 [12]) was “Dose-dependent effect”, the IC50 (A549 [27]) was over 100 µM and the IC50 (MCF7 [33]) was over 100 µM. The “growth inhibition (GI)” value (HepG2 [35]) was “Dose-dependent effect” and the IC50 (HepG2 [36]) was over 100 µM.

`CC1(C)CCc2c([C@H]3CCc4ccc(O)cc4O3)ccc(O)c2O1` was tested, and the IC50 (Hep 3B2 [1]) was 41.7 µM, the “growth inhibition (GI)” value (MCF7 [4]) was “Dose-dependent effect” and the “growth inhibition (GI)” value (A549 [8]) was “Dose-dependent effect”. The “growth inhibition (GI)” value (Hep 3B2 [12]) was “Dose-dependent effect”, the IC50 (A549 [27]) was over 100 µM and the IC50 (MCF7 [33]) was over 100 µM. The “growth inhibition (GI)” value (HepG2 [35]) was “Dose-dependent effect” and the IC50 (HepG2 [36]) was over 100 µM.

`CC1(C)C=Cc2c([C@@H]3CCc4ccc(O)cc4O3)ccc(O)c2O1` was tested, and the IC50 (Hep 3B2 [1]) was 75.7 µM, the “growth inhibition (GI)” value (MCF7 [4]) was “Dose-dependent effect” and the “growth inhibition (GI)” value (A549 [8]) was “Dose-dependent effect”. For the same compound, the “growth inhibition (GI)” value (Hep 3B2 [12]) was “Dose-dependent effect”, the IC50 (A549 [27]) was over 100 µM and the IC50 (MCF7 [33]) was over 100 µM. For the same compound, the “growth inhibition (GI)” value (HepG2 [35]) was “Dose-dependent effect” and the IC50 (HepG2 [36]) was over 100 µM.
